Experimental data taken from US20150157651A1, “TRI-SUBSTITUTED GLYCEROL COMPOUNDS FOR USE IN THE TREATMENT OF CLINICALLY ISOLATED SYNDROME AND/OR MULTIPLE SCLEROSIS” (ALPHAPTOSE GMBH, priority 2012, published 2015).
Values after ≈ are worked out from the molar mass of the structure shown. “Also recorded” adds a separate entry of the source.

Experiments:
[1] = tested on: human peripheral blood mononuclear cells (PBMCs); assay: PBMC proliferation, edelfosine added on cell seeding, with or without PHA; assay type: cell-based
Description: (§1) FIG. 1: Human T-cell proliferation was affected by edelfosine. […] (B) The inhibitory effect of edelfosine was also observed if the drug was added to already activated, proliferating T cells. […] (C) Preincubation of PBMCs with at least 3.3 μg/ml edelfosine interfered with the cells' capacity to proliferate upon PHA stimulation. No effect was detected in preconditioned, but unstimulated cells (experiments A-C: sample size n=3 donors, each approach was seeded in triplicates). (D) 1 μg/ml edelfosine or higher concentrations profoundly diminished proliferation in MBP(83-99)-specific TCLs (T-cell line). One representative TCL of two is shown. Cells were incubated in quadruplicates. (E) PBMCs were cultured without addition of stimulus. Proliferation was detectable after seven days. […] Bars represent mean values±SEM, *P<0.05, **P<0.01 and ***P<0.001 after post-hoc analysis.
FIG. 9 describes the influence of edelfosine on human T cell proliferation. […] PBMCs were used for the examination of concentration-dependent edelfosine impact on human T cell activation and proliferation (b, 72 h of co-culture). A reduction in proliferation was already detectable upon addition of 1.0 μg/ml edelfosine (**P<0.01, n=3). Enriched CD4+ T cells from PBMCs of both two age-matched female and male donors were incubated for 30 h in presence of 3.3 μg/ml edelfosine. Cells were stimulated with beads coated with antibodies against CD2, CD3 and CD28.
In order to characterize the influence of edelfosine on the proliferation of human T cells, peripheral blood mononuclear cells (PBMCs) were first stimulated with a mitogenic stimulus, PHA (phytohemagglutinin) Proliferation was analyzed after three days of culture. First, the impact of edelfosine on T-cell activation and proliferation was investigated by adding edelfosine immediately as the cells were seeded. Cells were incubated without or in the presence of PHA. […] Here, the half maximal inhibitory concentration (IC50) was determined by nonlinear regression.

human PBMCs [2] = assay: Proliferation of already PHA-activated, proliferating PBMCs, edelfosine added two days later; assay type: cell-based
Description: as §1
The second approach aimed at characterizing the edelfosine influence on already proliferating cells. For that reason cells were activated with PHA, and edelfosine was added two days later.

human PBMCs [3] = assay: PBMC proliferation after 24 h preincubation with edelfosine, washing, then PHA stimulation; assay type: cell-based
Description: as §1
Cells were washed extensively to remove edelfosine followed by further culturing for three days. In control approaches cells were incubated without PHA. […] 3.3 μg/ml edelfosine or higher interfered with the cellular capacity to proliferate upon stimulation with PHA.

human PBMCs [4] = assay: PBMC proliferation over seven days without addition of stimulus; assay type: cell-based; details: 3.3 μg/ml edelfosine, up to seven days
Description: as §1
In an additional approach PBMCs were incubated for up to seven days without the addition of a stimulus. Cells were cultured in medium alone, in presence of anti-HLA-DR- and anti-MHC class I-blocking antibody or with 3.3 μg/ml edelfosine.

human CD4+ T cells [5] = assay: Whole genome expression (microarray) analysis of CD4+ T cells; assay type: cell-based
Description: FIG. 2: Modulated gene expression in CD4+ T cells upon culture with edelfosine.
Enriched CD4+ T cells from PBMCs of two age-matched female as well as two age-matched male donors were incubated for 30 h without edelfosine, in presence of 3.3 μg/ml edelfosine and 10 μg/ml edelfosine, respectively. In parallel approaches, cells were incubated with beads coated with antibodies against CD2, CD3 and CD28 or with coated beads and 3.3 μg/ml edelfosine. Cell-culture supernatant was saved and cells were subjected to RNA isolation, cDNA synthesis and microarray analysis for gene expression. Comparative gene-expression analysis was performed according to FIG. 2.
In general, edelfosine modulated the gene expression of human CD4+ T cells in the case of stimulation but also if no exogenous stimulus was added, although to a limited extent. […] Therefore, further analysis of the unstimulated cells focused on the 10 μg/ml edelfosine approach. Next, the database for annotation, visualization and integrated discovery (DAVID)-bioinformatics database was used to annotate the differentially expressed genes to functional themes/groups and assign to them so-called gene-ontology (GO) terms for specific pathways of cellular function (314). The GO project is an effort to consistently describe gene products in databases. DAVID, as a tool, is designed to allow systematical mapping of large numbers of genes in lists associated with biological annotations (e.g. GO terms). Three structured controlled vocabularies (ontologies) have been developed to describe gene products in a species-independent manner: the associated biological process (BP), cellular components and molecular functions. The GOTERM_BP_FAT set which has been specifically designed by the DAVID consortium was selected to filter the broadest terms in order to prevent overshadowing of more specific terms. FIG. 3 summarizes the top-3 GO-terms which were selected due to their highest GO P-values. As shown therein, the addition of […] edelfosine was leading to an upregulation of genes associated with apoptosis and cell death in the unstimulated setting, a finding that was in accordance with the previously described analysis for annexin V and PI after edelfosine incubation.

[6] = tested on: relapsing-remitting EAE (RR-EAE) model in SJL mice; assay: Relapsing-remitting EAE disease course, clinical scoring; assay type: in vivo
From the text: FIG. 6 describes the influence of edelfosine on EAE disease course. Our aim was to study the effect of edelfosine on the immune system in the context of experimental autoimmune encephalomyelitis (EAE), an animal model of multiple sclerosis. In the course of EAE CD4+ T cell and mononuclear cell inflammation is followed by axonal damage and demyelination in the central nervous system (CNS) which results in progressive hind-limb paralysis. In order to analyze the anti-inflammatory properties of edelfosine we have used the relapsing-remitting EAE (RR-EAE) model in SJL mice. We also examined the edelfosine impact on human T-cell proliferation. For EAE induction SJL mice were immunized with the proteolipid PLP(139-151). Edelfosine was adminstered by intraperitoneal injection from day 0 at a daily basis. EAE disease course was assessed by clinical scoring in a 0-5 scale until day 40 (*P<0.05, 2-way ANOVA, n=7). To investigate the therapeutic effect of edelfosine on RR-EAE disease course, SJL mice were immunized and treatment of the mice was started at disease onset by intraperitoneal injection from day 11 at a daily basis until day 45.

[7] = tested on: lymph node cells of SJL mice; assay: Ex vivo thymidine proliferation of lymph node cells from treated immunized mice; assay type: in vivo
Description: FIG. 7 describes the impact of edelfosine on proliferation of antigen-specific cells. To examine the influence of edelfosine on antigen-specific cells in the periphery lymph nodes from SJL mice were prepared for thymidine proliferation assays 9 days after immunization. Cells were restimulated ex vivo by addition of mitogenic- (a), polyclonal or disease-relevant (PLP(139-151); b) antigen.

[8] = tested on: CNS-infiltrating cells of EAE SJL mice; assay: CNS cellular infiltration in EAE acute phase, flow cytometry; assay type: in vivo; details: 15 days after EAE induction
Description: FIG. 8 describes the effect of edelfosine on CNS cellular infiltration in EAE acute phase. SJL mice were immunized with […]. 15 days after EAE induction CNS cells were analyzed by flow cytometry. The administration of 10 mg/kg edelfosine reduced the absolute number of CNS-infiltrating CD45+ leukocytes (a). […] We found a significant treatment effect with a significant difference between 10 mg/kg edelfosine and PBS treatment in CD4+ cells (*P<0.05 compared to PBS control group, post-hoc comparison after 1-way ANOVA, n=4). Similar differences were found for T cells in spleens at day 9 after immunization.

non-stimulated PBMCs = assay: Flow cytometry of non-stimulated PBMCs for cell death; assay type: cell-based, human; details: 10 μg/ml or 33.3 μg/ml, 24 h
human CD4+ T cells [9] = assay: Whole genome expression (microarray) analysis of CD4+ T cells; assay type: cell-based; details: unstimulated cells, 10 μg/ml, 30 h
[10] = cells stimulated with anti-CD2/CD3/CD28 beads, 3.3 μg/ml, 30 h
[11] = unstimulated cells, 10 μg/ml, 30 h

CCCCCCCCCCCCCCCCCCOC[C@H](COP(=O)([O-])OCC[N+](C)(C)C)OC (racemic) [edelfosine, 1-O-octadecyl-2-O-methyl-sn-glycero-3-phosphocholine]
IC50 ([1]; Homo sapiens, PBMC, 72 h, read-out: half maximal inhibitory concentration (IC50) of proliferation, PHA-stimulated cells, edelfosine added at seeding, three days of culture): 0.64 ± 0.1 µg/mL (≈ 1.22 µM) | fold lower concentration at which PHA-activated cells are susceptible compared to cells without PHA ([1]; PHA-activated versus unstimulated PBMCs): 10 fold | edelfosine concentration at which a reduction in proliferation was detectable ([1]; unstimulated controls, added at seeding, three days): ≥ 10 µg/mL | edelfosine concentration giving efficient reduction of proliferation (human PBMCs [2]; PHA-activated cells, edelfosine added two days later): ≥ 3.3 µg/mL | edelfosine concentration giving significant reduction of proliferation (human PBMCs [2]; unstimulated controls): 33.3 µg/mL | edelfosine concentration up to which cells retain proliferative function (human PBMCs [3]; 24 h preincubation, washed, PHA stimulation, three days): up to 1 μg/ml | effect on proliferation (human PBMCs [3]; preconditioned but unstimulated cells): no significant reductions of proliferation; also recorded: No effect | effect on proliferation without stimulus (human PBMCs [4]): reduced to non-detectable levels; also recorded: inhibited cellular proliferation | expression of cell cycle-associated genes (human CD4+ T cells [5]; [10]): downmodulation; also recorded: down-regulated | expression of genes associated with apoptosis and cell death (human CD4+ T cells [5]; [10]): upregulation | expression of immune and virus response-associated, type I interferon-related genes (human CD4+ T cells [5]; [10]): consistent and profound upregulation; also recorded: upregulated | number of downregulated genes assigned to antigen processing and presentation (SLR≦−0.8) (human CD4+ T cells [5]; unstimulated cells, 10 μg/ml): 25 | expression of immune response and antigen processing and presentation (MHC class II) genes (human CD4+ T cells [5]; [11]): downmodulation; also recorded: downregulated | number of upregulated genes (SLR≧0.8) (human CD4+ T cells [5]; [11]): 11 | EAE disease course ([6]; prophylactic, 10 mg/kg daily intraperitoneal from day 0): EAE amelioration | EAE disease course ([6]; therapeutic, 10 mg/kg daily intraperitoneal from disease onset (day 11)): EAE amelioration | proliferative function of lymph node cells on ex vivo restimulation ([7]; 9 days after immunization, edelfosine-treated mice): retained their proliferative function | proliferation on re-activation with PLP peptide ([7]; 9 days after immunization, ex vivo PLP restimulation): edelfosine dose-dependent proliferation | SI compared to PBS treatment of mice ([7]; antigen-induced proliferation, edelfosine-treated mice): increased SI | absolute number of CNS-infiltrating CD45+ leukocytes ([8]; 10 mg/kg): reduced | frequencies of CD8+ T cells ([8]; 10 mg/kg): not affected | infiltrating CD4+ T cells ([8]; 10 mg/kg): relative decrease | activation of caspase 3 in CNS CD4+ T cells ([8]; significant for 10 mg/kg versus PBS): dose-dependent activation; also recorded: increased | cell death in non-stimulated PBMCs (non-stimulated PBMCs): induction of non-apoptotic cell death | expression of apoptosis- and cell death-associated genes (human CD4+ T cells [9]): upregulation
